Source: article PMC3944389, “Differential Neuroprotective Effects of 5′-Deoxy-5′-Methylthioadenosine” (PLoS ONE, 2014)

Key:
[1] = test system: co-culture of bovine-brain endothelial cells (BBECs) and newborn rat astrocytes; assay: In vitro cell model of transport across the BBB; assay type: in vitro ADME
Protocol: A in vitro cell model of BBB permeability was established using a co-culture of bovine-brain endothelial cells (BBECs) and newborn rat astrocytes. The cells were first cultured in 24-well (Transwell^R) permeable supports with a surface area of 0.33 cm^2 and a pore size of 0.4 µm (Corning), the upper surface of which was coated with collagen type IV and fibronectin. The inserts were then placed upside down in a large petri dish, and 40 µL of a suspension (containing approximately 45,000 astrocytes) was placed on the bottom of each filter. The petri dish was incubated at 37°C for 1 h, and 40 µL of fresh DMEM+S was added to the bottom of each filter every 15 min. The inserts were then transferred back to the plate and incubated at 37°C in 5% CO2 for 3 d. Then, 2 h before seeding the BBECs, the medium was replaced by DMEM+S supplemented with 125 µg/mL heparin and 2 h later, the cells were seeded onto the inserts (45,000 cells per filter). The plate was incubated at 37°C in 5% CO2 for 3 more days, after which the medium was replaced by DMEM+S supplemented with cyclic adenosine monophosphate (cAMP) and RO-20-1724, and kept at 37°C in 5% CO2. On day 8 of the co-culture, the transendothelial electrical resistance (TEER) was measured to determine whether the system was ready for transport studies. To validate the maturity of the model, permeability assays with lucifer yellow (LY) were performed in parallel as a marker of the integrity of the in vitro barrier. During the permeability assay, the samples were co-incubated with LY (20 µM) to assess the integrity of the cellular monolayer during the assay.

[2] = test system: Wistar rats, transient MCAO model of focal brain ischemia; assay: Transient focal ischemia (MCAO), infarct volume by TTC staining; assay type: in vivo, rat; conditions: 30 mg/kg i.p. twice daily from 30 min after onset of ischemia, 3 days reperfusion; compared with vehicle
Protocol: Male Wistar rats (270-300 g; Harlan) were subjected to transient focal ischemia for 90 min by producing right middle cerebral artery occlusion (MCAO) as described previously, followed by reperfusion for 3 days and MTA treatment (30 mg/kg, intraperitoneally –i.p.- twice daily) starting 30 min after the onset of ischemia (n = 5 in each experimental group). Cerebral blood flow was monitored transcranially with a laser Doppler flowmeter (Perimed) and the infarct volume was assessed by 2,3,5-triphenyltetrazolium chloride (TTC) staining. Transient forebrain ischemia was induced as described elsewhere, by occluding the vertebral and common carotid arteries (4VO) for 10 min, followed by reperfusion for 7 days and MTA treatment (as above) starting 30 min after the onset of ischemia (n = 5 in vehicle group; n = 6 in the […]). The effectiveness of the treatment was assessed by using fluoro-Jade C staining to measure the levels of degenerated neurons in the CA1 region of the hippocampal formation.

5′-deoxy-5′-methylthioadenosine [MTA]
Pe x 10^−6 (cm/s) [1]: 4.5 x 10^−6 cm/s
effective permeability coefficient (Pe) [1]: 45 nm/s
volume of the infarct area [2]: did not show any reduction
